From patent US5571816A, “Pyrimidines” (Hoechst Aktiengesellschaft, priority 1992, dated 1996)
Counter-ions that a name gives are not always drawn. Like-named read-outs stand apart in the source and are kept apart here. One block for each molecule: values may come before it.

Key:
[1] = Solubility in water of salts (and free bases); type: physicochemical; conditions: for solubility: water
serum lipoproteins = assay: Effect on serum lipoproteins of normolipemic male rats in a subchronic experiment; type: in vivo; conditions: Rattus norvegicus, po, by stomach tube, 7 administrations; for change in vivo at 30 mg/kg: 30 mg/kg/day; for change in vivo at 100 mg/kg: 100 mg/kg/day; for change in vivo at 10 mg/kg: 10 mg/kg/day; for change in vivo at 3 mg/kg: 3 mg/kg/day
Description: 3. In vivo, the increased LDL receptor activity in experimental animals is reflected by reduction in the lipoprotein fractions which can be metabolized by the LDL receptor (apoB/E receptor), i.e. a reduction in the LDL and VLDL levels is observed. The following test was carried out:
Effect on serum lipoproteins of normolipemic male rats in a subchronic experiment
Groups of in each case 10 male rats of the HOE: WISKf (SPF 71) strain with an initial weight above 180 g received once a day (in the morning) the test product or the comparison product in 1% aqueous ®Tylose MH 300 solution by stomach tube (0.5 ml/100 g of body weight); the control group in each case received only the vehicle. The last (7th) administration took place 24 hours before removal of blood and sacrifice. There was free access to food and water during the test. The food was withdrawn 24 hours before the removal of blood.
The serum from all 10 rats in a group was pooled for the analysis of the serum lipoproteins. The serum lipoproteins were separated with a preparative ultracentrifuge (KONTRON TGA 65, Rotor BECKMAN 50.4 Ti).
The following conditions specified by Koga, S., Horwitz, D. L., and Scanu, A. M., Journal of Lipid Research 10, 577 (1969) and Havel, R. J., Eder, H. A., and Bragdon, H. H., J. Clin. Invest. 34, 1345 (1955) were used to separate VLDL and LDL: 1. VLDL: Density<1.006, 40,000 rpm for 16 hours 2. LDL: Density 1.006-1.04, 40,000 rmp for 16 hours
Test kits from BOEHRINGER/Mannheim were used for the enzymatic determination of cholesterol and triglycerides in the separated lipoprotein fractions (cf. Siedel, J., Schlumberger, H., Klose, S., Ziegenhorn, J. and Wahlefeld, A. W., J. Clin. Chem. Clin. Biochem. 19, 838 (1981) and Wahlefeld, A. W., in: H. O. Bergmeier: Methoden der enzymatischen Analyse (Methods of Enzymatic Analysis), 2nd edition, Volume II, Verlag Chemie 1974, page 1878). The proteins were determined by the method of Lowry (Lowry, O. H., Roseborough, N. H., Farr, A. L. and Randell, R. J., J. Biol. Chem. 193, 265 (1951)).
Clofibrate was used as comparison product.

[2] = Table 1, N-H analogs, temp. by No. [°C]: 1 25.0, 2 23.0, 3 26.2, 4 25.1, 5 25.2, 6 24.1, 7 24.5, 8 24.2, 9 24.2, 10 25.7, 11 25.8
[3] = Table 1, N-H analogs, temp. by No. [°C]: 1 25.0, 2 23.0, 3 26.2, 4 25.1, 5 25.2, 6 24.1, 7 24.5, 8 24.2, 9 24.2, 10 25.7, 11 25.8, read-out: Solubility in water, Concentration in % by wt.
[4] = Table 1, N-H analogs, temp. by No. [°C]: 1 25.0, 2 23.0, 3 26.2, 4 25.1, 5 25.2, 6 24.1, 7 24.5, 8 24.2, 9 24.2, 10 25.7, 11 25.8, read-out: Solubility in water, Molarity × 10^-3
[5] = read-out: Serum LDL cholesterol, % change from control at end of treatment
[6] = read-out: Serum LDL protein, % change from control at end of treatment
[7] = read-out: Serum VLDL cholesterol, % change from control at end of treatment
[8] = read-out: Serum VLDL protein, % change from control at end of treatment
[9] = read-out: Serum VLDL triglycerides, % change from control at end of treatment
[10] = Table 2, salts of compounds I, temp. by No. [°C]: 1 25.5, 2 23.0, 3 22.4, 4 22.4, 5 22.0, 6 25.0, 7 25.5, 8 25.5, 9 25.5, 10 23.5, 11 23.5, 12 25.0, 13 24.0, 14 23.0, 15 22.0, 16 24.5, 17 22.5, 18 22.0
[11] = Table 2, salts of compounds I, temp. by No. [°C]: 1 25.5, 2 23.0, 3 22.4, 4 22.4, 5 22.0, 6 25.0, 7 25.5, 8 25.5, 9 25.5, 10 23.5, 11 23.5, 12 25.0, 13 24.0, 14 23.0, 15 22.0, 16 24.5, 17 22.5, 18 22.0, read-out: Solubility in water, Concentration in % by wt.

1 part by mass dissolves in ... parts of H2O [1, 2]: 703 parts of H2 O
solubility [1, 3]: 1400 µg/mL
solubility [1, 4]: 3170 µM
SMILES: CC1(C)CN(c2ncc(C(=O)Nc3ccc(F)c(C(F)(F)F)c3)c(N)n2)C(=O)N1 [No. 3 (Table 1), reference compound]

1 part by mass dissolves in ... parts of H2O [1, 2]: 255 parts of H2 O
solubility [1, 3]: 3900 µg/mL
solubility [1, 4]: 8540 µM
SMILES: CCCC1(C)CN(c2ncc(C(=O)Nc3cccc(C(F)(F)F)c3)c(N)n2)C(=O)N1 (stereo not shown) [No. 10 (Table 1), reference compound]

solubility ([1]; 23° C., read-out: 1 part by mass dissolves in parts of water (converted)): 400 µg/mL
solubility ([1]; 23° C., read-out: solution that can be prepared in water): 930 µM
solubility [1, 3]: 400 µg/mL
solubility [1, 4]: 930 µM
SMILES: CC1(C)CN(c2ncc(C(=O)Nc3cccc(C(F)(F)F)c3)c(N)n2)C(=O)N1 [No. 1 (Table 1), hydrochloride of 4-amino-2-(4,4-dimethylimidazolidin-2-on-1-yl)pyrimidine-5-carboxylic acid N-(3-trifluoromethylphenyl)amide, reference compound]

Solubility in water, Molarity × 10^-3 [1, 2]: 0.90 Molarity × 10^-3
SMILES: CC1(C)CN(c2ncc(C(=O)Nc3cccc(C(F)(F)F)c3)c(N)n2)C(=O)N1 [No. 2 (Table 1), reference compound]

solubility in water, in words ([1]; categories of the Deutsches Arzneibuch): exceptionally slightly soluble
SMILES: CC1(C)CN(c2ncc(C(=O)Nc3cccc(C(F)(F)F)c3)c(N)n2)C(=O)N1 [4-amino-2-(4,4-dimethylimidazolidin-2-on-1-yl)pyrimidine-5-carboxylic acid N-(3-trifluoromethylphenyl)amide, reference compound]

1 part by mass dissolves in ... parts by H2O [1, 10]: 13.1 parts by H2 O
solubility [1, 11]: 71100 µg/mL
SMILES: CC1(C)CN(c2ncc(C(=O)N(CC3CC3)c3cccc(C(F)(F)F)c3)c(N)n2)C(=O)N1 [No. 9 (Table 2)]

The remaining lines, values behind:

SMILES: CN(C(=O)c1cnc(N2CC(C)(C)NC2=O)nc1N)c1cc(C(F)(F)F)ccc1Cl [Example 29]
change in vivo at 30 mg/kg (serum lipoproteins; [5]): -51%
change in vivo at 30 mg/kg (serum lipoproteins; [6]): -27%
change in vivo at 30 mg/kg (serum lipoproteins; [7]): -80%
change in vivo at 30 mg/kg (serum lipoproteins; [8]): 40%
change in vivo at 30 mg/kg (serum lipoproteins; [9]): -70%

SMILES: CCOC(=O)C(C)(C)Oc1ccc(Cl)cc1 [Clofibrate, reference compound]
change in vivo at 100 mg/kg (serum lipoproteins; [5]): -31%
change in vivo at 100 mg/kg (serum lipoproteins; [6]): -3%
change in vivo at 100 mg/kg (serum lipoproteins; [7]): -51%
change in vivo at 100 mg/kg (serum lipoproteins; [8]): -30%
change in vivo at 100 mg/kg (serum lipoproteins; [9]): -34%

SMILES: CN(C(=O)c1cnc(N2CC(C)(C)NC2=O)nc1N)c1ccc(Br)c(C(F)(F)F)c1 [Example 30]
change in vivo at 10 mg/kg (serum lipoproteins; [5]): -25%
change in vivo at 10 mg/kg (serum lipoproteins; [6]): -19%
change in vivo at 10 mg/kg (serum lipoproteins; [7]): -29%
change in vivo at 10 mg/kg (serum lipoproteins; [8]): -36%
change in vivo at 10 mg/kg (serum lipoproteins; [9]): 7%

SMILES: CC(C)CN(C(=O)c1cnc(N2CC(C)(C)NC2=O)nc1N)c1cccc(C(F)(F)F)c1 [Example 36]
change in vivo at 30 mg/kg (serum lipoproteins; [5]): -38%
change in vivo at 30 mg/kg (serum lipoproteins; [6]): -5%
change in vivo at 30 mg/kg (serum lipoproteins; [7]): -65%
change in vivo at 30 mg/kg (serum lipoproteins; [8]): -33%
change in vivo at 30 mg/kg (serum lipoproteins; [9]): 42%

SMILES: CC(C)CN(C(=O)c1cnc(N2CC(C)NC2=O)nc1N)c1cccc(C(F)(F)F)c1 (stereo not shown) [Example 114]
1 part by mass dissolves in ... parts by H2O [1, 10]: 24.7 parts by H2 O
solubility [1, 11]: 38900 µg/mL

SMILES: CCCC1(C)CN(c2ncc(C(=O)Nc3ccc(Cl)c(C(F)(F)F)c3)c(N)n2)C(=O)N1 (stereo not shown) [No. 9 (Table 1), reference compound]
solubility [1, 3]: 1300 µg/mL
solubility [1, 4]: 2800 µM

SMILES: CC1(C)CN(c2ncc(C(=O)N(CC3CC3)c3cc(C(F)(F)F)ccc3F)c(N)n2)C(=O)N1 [Example 61, 4-amino-2-(4,4-dimethyl-2-oxo-1-imidazolidinyl)pyrimidine-5-carboxylic acid N-cyclopropylmethyl-N-(2-fluoro-5-trifluoromethylphenyl)amide]
1 part by mass dissolves in ... parts by H2O [1, 10]: 65.8 parts by H2 O
solubility [1, 11]: 15000 µg/mL

SMILES: CC1(C)CN(c2ncc(C(=O)N(c3cccc(C(F)(F)F)c3)C3CCCC3)c(N)n2)C(=O)N1 [No. 8 (Table 2)]
1 part by mass dissolves in ... parts by H2O [1, 10]: 60.6 parts by H2 O
solubility [1, 11]: 16200 µg/mL

SMILES: CCCCN(C(=O)c1cnc(N2CCNC2=O)nc1N)c1cccc(C(F)(F)F)c1 [Example 55, 4-amino-2-(2-oxo-1-imidazolidinyl)pyrimidine-5-carboxylic acid N-butyl-N-(3-trifluoromethylphenyl)amide hydrochloride]
change in vivo at 30 mg/kg (serum lipoproteins; [5]): -29%
change in vivo at 30 mg/kg (serum lipoproteins; [6]): -9%
change in vivo at 30 mg/kg (serum lipoproteins; [7]): -14%
change in vivo at 30 mg/kg (serum lipoproteins; [8]): -18%
change in vivo at 30 mg/kg (serum lipoproteins; [9]): -20%

SMILES: CCCCN(C(=O)c1cnc(N2CC(C)(C)NC2=O)nc1N)c1cccc(C(F)(F)F)c1 [Example 6, 4-amino-2-(4,4-dimethyl-2-oxo-1-imidazolidinyl)pyrimidine-5-carboxylic acid N-butyl-N-(3-trifluromethylphenyl)amide hydrochloride]
change in vivo at 3 mg/kg (serum lipoproteins; [5]): -24%
change in vivo at 3 mg/kg (serum lipoproteins; [6]): -3%
change in vivo at 3 mg/kg (serum lipoproteins; [7]): -35%
change in vivo at 3 mg/kg (serum lipoproteins; [8]): -12%
change in vivo at 10 mg/kg (serum lipoproteins; [5]): -20%
change in vivo at 10 mg/kg (serum lipoproteins; [6]): -62%
change in vivo at 10 mg/kg (serum lipoproteins; [7]): -35%
change in vivo at 10 mg/kg (serum lipoproteins; [8]): -15%
change in vivo at 30 mg/kg (serum lipoproteins; [5]): -62%
change in vivo at 30 mg/kg (serum lipoproteins; [6]): -36%
change in vivo at 30 mg/kg (serum lipoproteins; [7]): 41%
change in vivo at 30 mg/kg (serum lipoproteins; [8]): -41%
change in vivo at 30 mg/kg (serum lipoproteins; [9]): -69%

SMILES: CC1(C)CN(c2ncc(C(=O)N(CC3CC3)c3cc(C(F)(F)F)ccc3F)c(N)n2)C(=O)N1 [Example 41]
change in vivo at 10 mg/kg (serum lipoproteins; [5]): -73%
change in vivo at 10 mg/kg (serum lipoproteins; [6]): -48%
change in vivo at 10 mg/kg (serum lipoproteins; [7]): -100%
change in vivo at 10 mg/kg (serum lipoproteins; [8]): -52%
change in vivo at 10 mg/kg (serum lipoproteins; [9]): -68%
change in vivo at 30 mg/kg (serum lipoproteins; [5]): -66%
change in vivo at 30 mg/kg (serum lipoproteins; [6]): -36%
change in vivo at 30 mg/kg (serum lipoproteins; [7]): -100%
change in vivo at 30 mg/kg (serum lipoproteins; [8]): -45%
change in vivo at 30 mg/kg (serum lipoproteins; [9]): -80%
